# Experimental data published in paper PMC11238919 (Virulence, 2024).
# Values joined by “and” are separate entries in the source; they are usually repeats but may differ in a detail not shown here. Identical values can stand only once. Where no end group is shown, it is not given here. [ ]: non-standard residue; d: D form. pY = N[C@@H](Cc1ccc(OP(=O)(O)O)cc1)C(=O)O
# T1: SHIP2-SH2 domain (Homo sapiens, UniProt O15357)
# T1 sequence (O15357 21-117 limits assumed): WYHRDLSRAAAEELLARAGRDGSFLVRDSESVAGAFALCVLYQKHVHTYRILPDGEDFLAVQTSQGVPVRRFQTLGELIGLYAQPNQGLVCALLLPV
# T2: His-tagged SHIP2-SH2 domain (UniProt O15357 21-117)
# T2 sequence (looked up): T1 sequence (O15357 21-117 limits assumed)
# Tests used:
# SHIP2 = conditions: ref [15]; cited from earlier work
# [1] = tested on: hummingbird phenotype of infected cells; assay: Hummingbird phenotype of infected cells; format: cell-based; conditions: SHP099 10 µM added 48 h before infection
# SHP2 = conditions: ref [10]; cited from earlier work
# SHIP2-SH2 domain = molecular target: T1, SHIP2-SH2 domain; assay: SPR affinity of EPIpYA peptides to immobilized SHIP2-SH2 domain; format: binding; conditions: EPIpYA-D versus EPIpYA-C
# [2] = molecular target: T2, His-tagged SHIP2-SH2 domain; assay: SPR
molecule,measurement,setting,value
EPIYA-C: EPIYA-C motif of CagA^W (literature),"binding to SHIP2, EPIYA-C versus EPIYA-D",SHIP2,binds slightly strongly to EPIYA-C than EPIYA-D
CC1(N)CCN(c2cnc(-c3cccc(Cl)c3Cl)c(N)n2)CC1 [SHP099],differences in morphological changes between strain groups,[1],the differences in the morphological changes between the groups were not obvious
EPIYA-D: CagA^E-specific EPIYA-D segment (literature),"binding to SHP2, EPIYA-D versus EPIYA-C",SHP2,binds to SHP2 more strongly than the EPIYA-C segment
CC[C@H](C)[C@H](NC(=O)[C@@H](NC(=O)[C@H](C)NC(=O)[C@H](Cc1ccc(OP(=O)(O)O)cc1)NC(=O)[C@@H](NC(=O)[C@@H]1CCCN1C(=O)[C@H](CCC(=O)O)NC(=O)[C@@H]1CCCN1C(=O)[C@H](CO)NC(=O)[C@H](C)N)[C@@H](C)CC)[C@@H](C)O)C(=O)N[C@@H](CC(=O)O)C(=O)N[C@@H](Cc1ccccc1)C(=O)N[C@@H](CC(=O)O)C(=O)O [EPIpYA-D],KD approximately 10 times lower than that of EPIpYA-C,SHIP2-SH2 domain,approximately 10 times
VSPEPI[pY]ATIDDL [tyrosine-phosphorylated EPIYA-C peptide (VSPEPIpYATIDDL)],Kd,[2],8350 nM
ASPEPI[pY]ATIDFD [tyrosine-phosphorylated EPIYA-D peptide (ASPEPIpYATIDFD)],Kd,[2],890 nM and 896 nM
